We go through six compounds from ChEMBL document CHEMBL3045920, “Antifeedant activity of some diterpenoids” (1999).

In the first test the test system is Henosepilachna vigintioctopunctata. In words: Antifeedant activity against fourth-instar nymphs of Henosepilachna vigintioctopunctata at 0.05 mg/cm'2 after 4 hr. The format is functional.
Take `CC(=O)OC[C@@]12C=C[C@@H](C)[C@](C)([C@@H]3C[C@H]4C(OC(C)=O)CO[C@H]4O3)[C@H]1CC[C@H](OC(C)=O)[C@]21CO1` (stereo partly specified): the Activity is -18.69%.

Take `C[C@@]12CCCC(CO)(CO)[C@H]1CC[C@H](CO)[C@H]2CCC1=CCOC1=O` [WIGHTIONOLIDE]: the Activity is on record as -52.79%.

Consider `C=C1CC[C@@H]2[C@](C)(CO)[C@H](O)CC[C@@]2(C)[C@@H]1C/C=C1/C(=O)OC[C@H]1O` [ANDROGRAPHOLIDE], for which the Activity is listed as -16.76%.

Regarding `CC(=O)OC[C@@]12[C@@H](OC(C)=O)C[C@@H](C)[C@](C)([C@@H]3C[C@H]4C=CO[C@H]4O3)[C@H]1CC[C@@H](OC(C)=O)[C@]21CO1` [CARYOPTIN], the Activity turned out to be 34.37%.

With `CC(=O)OC[C@@]12[C@@H](OC(C)=O)C[C@@H](C)[C@](C)([C@@H]3C[C@@H]4CCO[C@H]4O3)[C@H]1CC[C@H](OC(C)=O)[C@]21CO1` [14,15-DIHYDRO-3-EPICARYOPTIN], the Activity stood at 21.14%.

Regarding `CC(=O)OC[C@@]12[C@@H](OC(C)=O)C[C@@H](C)[C@](C)([C@@H]3C[C@H]4C=CO[C@H]4O3)[C@H]1CC[C@H](OC(C)=O)[C@]21CO1` [3-EPICARYOPTIN], the Activity came out at 16.12%.

Another test has the same test system. Briefly: Antifeedant activity against adults of Henosepilachna vigintioctopunctata at 0.05 mg/cm'2 after 4 hr. The format is functional.
Turning to `CC(=O)OC[C@@]12C=C[C@@H](C)[C@](C)([C@@H]3C[C@H]4C(OC(C)=O)CO[C@H]4O3)[C@H]1CC[C@H](OC(C)=O)[C@]21CO1` (stereo partly specified), the Activity is -20.26%.

Consider `C[C@@]12CCCC(CO)(CO)[C@H]1CC[C@H](CO)[C@H]2CCC1=CCOC1=O` [WIGHTIONOLIDE], for which the Activity turned out to be 18.42%.

With `C=C1CC[C@@H]2[C@](C)(CO)[C@H](O)CC[C@@]2(C)[C@@H]1C/C=C1/C(=O)OC[C@H]1O` [ANDROGRAPHOLIDE], the Activity is given as -10.95%.

In the case of `CC(=O)OC[C@@]12[C@@H](OC(C)=O)C[C@@H](C)[C@](C)([C@@H]3C[C@H]4C=CO[C@H]4O3)[C@H]1CC[C@@H](OC(C)=O)[C@]21CO1` [CARYOPTIN], the Activity is on record as -5.31%.

For `CC(=O)OC[C@@]12[C@@H](OC(C)=O)C[C@@H](C)[C@](C)([C@@H]3C[C@@H]4CCO[C@H]4O3)[C@H]1CC[C@H](OC(C)=O)[C@]21CO1` [14,15-DIHYDRO-3-EPICARYOPTIN], the Activity was 10.2%.

`CC(=O)OC[C@@]12[C@@H](OC(C)=O)C[C@@H](C)[C@](C)([C@@H]3C[C@H]4C=CO[C@H]4O3)[C@H]1CC[C@H](OC(C)=O)[C@]21CO1` [3-EPICARYOPTIN]: the Activity is given as 31.07%.

For a further test the test system is unchanged. Briefly: Antifeedant activity against fourth-instar nymphs of Henosepilachna vigintioctopunctata at 0.5 mg/cm'2 after 4 hr. The format is functional.
For the compound `CC(=O)OC[C@@]12C=C[C@@H](C)[C@](C)([C@@H]3C[C@H]4C(OC(C)=O)CO[C@H]4O3)[C@H]1CC[C@H](OC(C)=O)[C@]21CO1` (stereo partly specified), the Activity is -1.39%.

In the case of `C[C@@]12CCCC(CO)(CO)[C@H]1CC[C@H](CO)[C@H]2CCC1=CCOC1=O` [WIGHTIONOLIDE], the Activity is reported as -14.03%.

Take `C=C1CC[C@@H]2[C@](C)(CO)[C@H](O)CC[C@@]2(C)[C@@H]1C/C=C1/C(=O)OC[C@H]1O` [ANDROGRAPHOLIDE]: the Activity is recorded as -52.38%.

Turning to `CC(=O)OC[C@@]12[C@@H](OC(C)=O)C[C@@H](C)[C@](C)([C@@H]3C[C@H]4C=CO[C@H]4O3)[C@H]1CC[C@@H](OC(C)=O)[C@]21CO1` [CARYOPTIN], the Activity is 72.51%.

As for `CC(=O)OC[C@@]12[C@@H](OC(C)=O)C[C@@H](C)[C@](C)([C@@H]3C[C@@H]4CCO[C@H]4O3)[C@H]1CC[C@H](OC(C)=O)[C@]21CO1` [14,15-DIHYDRO-3-EPICARYOPTIN], the Activity stood at 20.39%.

For `CC(=O)OC[C@@]12[C@@H](OC(C)=O)C[C@@H](C)[C@](C)([C@@H]3C[C@H]4C=CO[C@H]4O3)[C@H]1CC[C@H](OC(C)=O)[C@]21CO1` [3-EPICARYOPTIN], the Activity stood at 9.37%.

The test system is the same in the next test. In words: Antifeedant activity against fourth-instar nymphs of Henosepilachna vigintioctopunctata at 5 mg/cm'2 after 4 hr. The format is functional.
For `CC(=O)OC[C@@]12C=C[C@@H](C)[C@](C)([C@@H]3C[C@H]4C(OC(C)=O)CO[C@H]4O3)[C@H]1CC[C@H](OC(C)=O)[C@]21CO1` (stereo partly specified), the Activity turned out to be 1.28%.

Take `C[C@@]12CCCC(CO)(CO)[C@H]1CC[C@H](CO)[C@H]2CCC1=CCOC1=O` [WIGHTIONOLIDE]: the Activity is on record as -11.72%.

Consider `C=C1CC[C@@H]2[C@](C)(CO)[C@H](O)CC[C@@]2(C)[C@@H]1C/C=C1/C(=O)OC[C@H]1O` [ANDROGRAPHOLIDE], for which the Activity was 54.06%.

On to `CC(=O)OC[C@@]12[C@@H](OC(C)=O)C[C@@H](C)[C@](C)([C@@H]3C[C@H]4C=CO[C@H]4O3)[C@H]1CC[C@@H](OC(C)=O)[C@]21CO1` [CARYOPTIN], for which the Activity was 44.46%.

In the case of `CC(=O)OC[C@@]12[C@@H](OC(C)=O)C[C@@H](C)[C@](C)([C@@H]3C[C@@H]4CCO[C@H]4O3)[C@H]1CC[C@H](OC(C)=O)[C@]21CO1` [14,15-DIHYDRO-3-EPICARYOPTIN], the Activity turned out to be 39.2%.

On to `CC(=O)OC[C@@]12[C@@H](OC(C)=O)C[C@@H](C)[C@](C)([C@@H]3C[C@H]4C=CO[C@H]4O3)[C@H]1CC[C@H](OC(C)=O)[C@]21CO1` [3-EPICARYOPTIN], for which the Activity was 23.56%.

Another test shares this test system. Briefly: Antifeedant activity against adults of Henosepilachna vigintioctopunctata at 0.5 mg/cm'2 after 4 hr. It is filed as functional.
On to `CC(=O)OC[C@@]12C=C[C@@H](C)[C@](C)([C@@H]3C[C@H]4C(OC(C)=O)CO[C@H]4O3)[C@H]1CC[C@H](OC(C)=O)[C@]21CO1` (stereo partly specified), for which the Activity came to 22.53%.

Take `C[C@@]12CCCC(CO)(CO)[C@H]1CC[C@H](CO)[C@H]2CCC1=CCOC1=O` [WIGHTIONOLIDE]: the Activity stood at 7.15%.

Take `C=C1CC[C@@H]2[C@](C)(CO)[C@H](O)CC[C@@]2(C)[C@@H]1C/C=C1/C(=O)OC[C@H]1O` [ANDROGRAPHOLIDE]: the Activity came out at 1.04%.

As for `CC(=O)OC[C@@]12[C@@H](OC(C)=O)C[C@@H](C)[C@](C)([C@@H]3C[C@H]4C=CO[C@H]4O3)[C@H]1CC[C@@H](OC(C)=O)[C@]21CO1` [CARYOPTIN], the Activity is listed as -10.03%.

Turning to `CC(=O)OC[C@@]12[C@@H](OC(C)=O)C[C@@H](C)[C@](C)([C@@H]3C[C@@H]4CCO[C@H]4O3)[C@H]1CC[C@H](OC(C)=O)[C@]21CO1` [14,15-DIHYDRO-3-EPICARYOPTIN], the Activity was 8.39%.

For the compound `CC(=O)OC[C@@]12[C@@H](OC(C)=O)C[C@@H](C)[C@](C)([C@@H]3C[C@H]4C=CO[C@H]4O3)[C@H]1CC[C@H](OC(C)=O)[C@]21CO1` [3-EPICARYOPTIN], the Activity worked out at 37.02%.

For a further test the test system is unchanged. Briefly: Antifeedant activity against adults of Henosepilachna vigintioctopunctata at 5 mg/cm'2 after 4 hr. The format is functional.
Regarding `CC(=O)OC[C@@]12C=C[C@@H](C)[C@](C)([C@@H]3C[C@H]4C(OC(C)=O)CO[C@H]4O3)[C@H]1CC[C@H](OC(C)=O)[C@]21CO1` (stereo partly specified), the Activity is 23.45%.

For the compound `C[C@@]12CCCC(CO)(CO)[C@H]1CC[C@H](CO)[C@H]2CCC1=CCOC1=O` [WIGHTIONOLIDE], the Activity is -4.1%.

In the case of `C=C1CC[C@@H]2[C@](C)(CO)[C@H](O)CC[C@@]2(C)[C@@H]1C/C=C1/C(=O)OC[C@H]1O` [ANDROGRAPHOLIDE], the Activity is 24.26%.

With `CC(=O)OC[C@@]12[C@@H](OC(C)=O)C[C@@H](C)[C@](C)([C@@H]3C[C@H]4C=CO[C@H]4O3)[C@H]1CC[C@@H](OC(C)=O)[C@]21CO1` [CARYOPTIN], the Activity is recorded as 84.95%.

`CC(=O)OC[C@@]12[C@@H](OC(C)=O)C[C@@H](C)[C@](C)([C@@H]3C[C@@H]4CCO[C@H]4O3)[C@H]1CC[C@H](OC(C)=O)[C@]21CO1` [14,15-DIHYDRO-3-EPICARYOPTIN]: the Activity was 39.34%.

As to `CC(=O)OC[C@@]12[C@@H](OC(C)=O)C[C@@H](C)[C@](C)([C@@H]3C[C@H]4C=CO[C@H]4O3)[C@H]1CC[C@H](OC(C)=O)[C@]21CO1` [3-EPICARYOPTIN], the Activity came out at 31.93%.
